Data published in ChEMBL document CHEMBL5727401, “Mixed lineage kinase inhibitors for HIV/AIDS therapies” (2019).

Target: Mitogen-activated protein kinase kinase kinase 11 (Homo sapiens, UniProt Q16584)
Assay: Radiometric Filter Plate MLK3 Assay: 200 ng (130 nM) MLK3 (Dundee, DU8313) was incubated with 1 μM inactive MKK7b (Dundee, DU703) in the presence of 2 μM cold ATP (Km) and 0.5 μCi/assay 33P ATP and appropriate concentrations of compounds. After a twenty minute incubation, the reactions were washed through filter plates and read on a scintillation counter.

Chain of Mitogen-activated protein kinase kinase kinase 11 (Q16584 whole entry): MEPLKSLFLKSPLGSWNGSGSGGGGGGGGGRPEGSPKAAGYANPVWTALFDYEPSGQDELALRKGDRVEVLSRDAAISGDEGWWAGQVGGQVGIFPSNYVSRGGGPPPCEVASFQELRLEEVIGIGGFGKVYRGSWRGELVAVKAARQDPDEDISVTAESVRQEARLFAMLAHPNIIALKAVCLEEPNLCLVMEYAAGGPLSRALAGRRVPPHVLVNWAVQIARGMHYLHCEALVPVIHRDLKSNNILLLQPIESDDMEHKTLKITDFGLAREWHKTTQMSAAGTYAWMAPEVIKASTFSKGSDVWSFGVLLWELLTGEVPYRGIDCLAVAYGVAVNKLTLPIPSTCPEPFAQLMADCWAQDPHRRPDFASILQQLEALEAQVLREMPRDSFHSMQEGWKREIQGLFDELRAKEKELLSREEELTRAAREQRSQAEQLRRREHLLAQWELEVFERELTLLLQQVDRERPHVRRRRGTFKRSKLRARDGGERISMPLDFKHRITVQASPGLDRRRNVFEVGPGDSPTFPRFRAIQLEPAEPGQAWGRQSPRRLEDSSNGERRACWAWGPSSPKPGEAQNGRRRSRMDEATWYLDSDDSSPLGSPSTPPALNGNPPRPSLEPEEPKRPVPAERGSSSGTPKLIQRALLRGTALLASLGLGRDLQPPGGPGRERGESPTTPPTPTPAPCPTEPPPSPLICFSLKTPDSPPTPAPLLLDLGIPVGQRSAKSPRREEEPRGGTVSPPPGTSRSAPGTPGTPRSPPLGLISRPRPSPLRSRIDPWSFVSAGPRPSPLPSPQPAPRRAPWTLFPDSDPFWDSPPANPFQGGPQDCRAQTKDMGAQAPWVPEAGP

IC50 [nM]	SMILES
< 100	c1cn(Cc2ccc(-c3cnc4[nH]cc(-c5ccc6[nH]ccc6c5)c4c3)cc2)cn1
< 100	CN1CCN(Cc2ccc(-c3cnc4[nH]cc(-c5cnc6[nH]ccc6c5)c4c3)cc2)CC1
